The results in this text go back to ChEMBL document CHEMBL1143697, “Lemnalosides A-D, decalin-type bicyclic diterpene glycosides from the marine soft coral Lemnalia sp” (2007).

The source made the active and inactive calls. The rule behind the calls is not given here.

Assay [1] relates to Streptomyces. Put plainly: microbe, parasite or virus in culture. The class given is functional. The note with it: 85E, read-out: IZ.
Description: Growth inhibition of Streptomyces 85E at 20 ug/disk by hyphae formation inhibition assay
In assay [2] the test system is Streptomyces. The assay can be described thus: microbe, parasite or virus in culture. The note with it: 85E, read-out: IZ.
Description: Growth inhibition of Streptomyces 85E assessed as induction of bald phenotype effect at 5 ug/disk by hyphae formation inhibition assay
The test system of assay [3] is Streptomyces. Put plainly: Growth inhibition of Streptomyces 85E by hyphae formation inhibition assay. It counts as functional, organism-based.
Assay [4] concerns Streptomyces. Put plainly: Growth inhibition of Streptomyces 85E at 10 ug/disk by hyphae formation inhibition assay. It counts as functional, organism-based.
For assay [5], the system named is Streptomyces. The assay can be described thus: Growth inhibition of Streptomyces 85E at 2.5 ug/disk by hyphae formation inhibition assay. The class given is functional, organism-based.

In the case of `N#CC(=C(/N)Sc1ccccc1N)/C(C#N)=C(\N)Sc1ccccc1N`, in assay [1], the zone of inhibition at 20 µg/disc was 15 mm. The zone of inhibition at 5 µg/disc in assay [2] stood at 15 mm.
Take `C=C(C)C(CC[C@@H](C)[C@@H]1CC[C@](C)(O[C@@H]2O[C@H](COC(C)=O)[C@H](O)[C@H](O)[C@H]2O)[C@H]2CCC(C)=C[C@@H]12)OO` (stereo not given in full): the outcome in assay [3] was inactive.
Take `CC1=C[C@H]2[C@H]([C@H](C)CCC[C@@H](C)C3OC[C@H]4O[C@@H](O3)[C@H](O)[C@@H](O)[C@@H]4O)CC=C(C)[C@H]2CC1` (stereo not given in full) [LEMNABOURSIDE]: in assay [4], the outcome was inactive. For the same compound, the zone of inhibition at 20 µg/disc in assay [1] came out at 10 mm.
Consider `CC(=O)OC[C@H]1O[C@@H](O[C@@]2(C)CC[C@@H]([C@H](C)CCC=C(C)C)[C@@H]3C=C(C)CC[C@@H]32)[C@H](O)[C@@H](O)[C@H]1O` [LEMNALOSIDE A], for which, in assay [4], the outcome was inactive. Besides, in assay [1], the zone of inhibition at 20 µg/disc is 11 mm.
Regarding `CC(=O)O[C@H]1[C@@H](O)[C@@H](CO)O[C@@H](O[C@@]2(C)CC[C@@H]([C@H](C)CCC=C(C)C)[C@@H]3C=C(C)CC[C@@H]32)[C@@H]1O` [LEMNALOSIDE B], the outcome in assay [5] was Active. In assay [1], the zone of inhibition at 20 µg/disc was determined as 18 mm.
In the case of `CO[C@@]12[C@H](COC(N)=O)C3=C(C(=O)C(C)=C(N)C3=O)N1C[C@@H]1N[C@@H]12` [MITOMYCIN], in assay [1], the zone of inhibition at 20 µg/disc is 30 mm.
